Consider one compound from patent US20040219220A1, “Therapeutic agents” (priority 2001, published 2004).

The nature of data set [1]: Extruder barrel temperature profile: ibuprofen content and degradation products after melt extrusion (Example 24). The class given is physicochemical. As to conditions: up to a maximum extruder setting of 140 C. The protocol:
The method set out in Example 1 was used. The extruder screw speed was set to a constant 600 rpm. The powder feed rate was also set to a constant value. to give a constant feed rate of powder into the extruder. The product of each trial was analysed to determine the level of the two major ibuprofen degradation products: 2-(4-isobutyrylphenyl) propionic acid (BTS 47711) and 4-isobutylacetophenone (BTS 40655).

Data set [2] is described as follows: Extruder temperature/throughput matrix: ibuprofen content and degradation products after melt extrusion (Example 25). It counts as physicochemical. As to conditions: 95 C to 130 C, 102 kg/hour to 216 kg/hour. The protocol: Further trials using the method of Example 1 but under process conditions as shown in Table 3 were conducted to determine the maximum output from the extruder by varying barrel temperature and powder feed rates, as shown in Table IIA.10.
Once the required extruder barrel temperature had been reached, the extruder was started and allowed to run for 15 minutes in order to equilibrate prior to sample collection.
Samples were collected for analysis to determine the level of degradation products formed.

With `CC(C)Cc1ccc(C(C)C(=O)O)cc1` (racemic) [ibuprofen], in data set [1], the “ibuprofen degradation as a result of the melt extrusion process” value is on record as “no evidence of ibuprofen degradation”. Further, in data set [2], the “degradation of ibuprofen over extruder barrel temperatures and throughputs” value is recorded as “no evidence of degradation”.
